According to the supplement of paper PMC8612539:
≈ marks a conversion by molar mass, not a printed value.

How the values were obtained:
Enterococcus spp. = test: minimum inhibitory concentration (MIC)
Protocol: (§1)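 Broth microdilution MIC (Sensititre BOPO7F bovine plate, CLSI methods) of 19 antimicrobials against field isolates of P. multocida, M. haemolytica, H. somni (deep nasopharyngeal swabs) and E. coli, Enterococcus spp. (rectal swabs) from weaned dairy heifers. Incubation 16-24 h at 35 C. MIC is the lowest concentration preventing visible growth. Values with <= or > lie at the tested range limits. Trimethoprim-sulfamethoxazole is given as the trimethoprim component of a 1:19 mixture.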

Histophilus somni = test: minimum inhibitory concentration (MIC)
Protocol: as §1

CN1C[C@@H]2C[C@H]1CN2c1cc2c(cc1F)c(=O)c(C(=O)O)cn2C1CC1 [Danofloxacin]
minimum inhibitory concentration [µg/mL]
Conditions	Enterococcus spp.	Histophilus somni
isolate (source animal id): 2	0.25 (≈ 0.7 µM)	–
isolate (source animal id): 3	–	≤ 0.12
isolate (source animal id): 4	–	≤ 0.12
isolate (source animal id): 7	–	≤ 0.12
isolate (source animal id): 14	–	≤ 0.12
isolate (source animal id): 15	–	≤ 0.12
isolate (source animal id): 17	–	≤ 0.12
isolate (source animal id): 18	–	≤ 0.12
isolate (source animal id): 20	–	≤ 0.12
isolate (source animal id): 23	–	≤ 0.12
isolate (source animal id): 35	> 1	–
isolate (source animal id): 42	1 (≈ 2.8 µM)	–
isolate (source animal id): 44	1 (≈ 2.8 µM)	–
isolate (source animal id): 45	–	≤ 0.12
isolate (source animal id): 53	–	≤ 0.12
isolate (source animal id): 79	1 (≈ 2.8 µM)	–
isolate (source animal id): 83	–	≤ 0.12
isolate (source animal id): 88	0.25 (≈ 0.7 µM)	≤ 0.12
isolate (source animal id): 91	0.25 (≈ 0.7 µM)	–
isolate (source animal id): 92	1 (≈ 2.8 µM)	≤ 0.12
isolate (source animal id): 93	–	≤ 0.12
isolate (source animal id): 99	–	≤ 0.12
isolate (source animal id): 100	–	≤ 0.12
isolate (source animal id): 105	–	≤ 0.12
isolate (source animal id): 107	–	≤ 0.12
isolate (source animal id): 108	–	≤ 0.12
isolate (source animal id): 109	–	≤ 0.12
isolate (source animal id): 110	–	≤ 0.12
isolate (source animal id): 111	0.25 (≈ 0.7 µM)	–
isolate (source animal id): 117	–	≤ 0.12
isolate (source animal id): 121	–	≤ 0.12
isolate (source animal id): 122	1 (≈ 2.8 µM)	–
isolate (source animal id): 123	0.5 (≈ 1.4 µM)	≤ 0.12
isolate (source animal id): 124	–	≤ 0.12
isolate (source animal id): 127	–	≤ 0.12
isolate (source animal id): 128	–	≤ 0.12
isolate (source animal id): 130	–	≤ 0.12
isolate (source animal id): 132	–	≤ 0.12
isolate (source animal id): 133	1 (≈ 2.8 µM)	–
isolate (source animal id): 135	–	≤ 0.12
isolate (source animal id): 140	–	≤ 0.12
isolate (source animal id): 141	–	≤ 0.12
isolate (source animal id): 142	–	≤ 0.12
isolate (source animal id): 144	–	≤ 0.12
isolate (source animal id): 146	–	≤ 0.12
isolate (source animal id): 147	–	≤ 0.12
isolate (source animal id): 151	–	≤ 0.12
isolate (source animal id): 153	–	≤ 0.12
isolate (source animal id): 154	–	≤ 0.12
isolate (source animal id): 156	–	≤ 0.12
isolate (source animal id): 157	–	≤ 0.12
isolate (source animal id): 158	1 (≈ 2.8 µM)	–
isolate (source animal id): 168	0.5 (≈ 1.4 µM)	–
isolate (source animal id): 169	0.5 (≈ 1.4 µM)	–
isolate (source animal id): 171	0.5 (≈ 1.4 µM)	–
isolate (source animal id): 175	> 1	–
isolate (source animal id): 176	–	≤ 0.12
isolate (source animal id): 177	> 1	–
isolate (source animal id): 181	0.5 (≈ 1.4 µM)	–
isolate (source animal id): 182	1 (≈ 2.8 µM)	–
isolate (source animal id): 183	1 (≈ 2.8 µM)	≤ 0.12
isolate (source animal id): 186	–	≤ 0.12
isolate (source animal id): 187	0.5 (≈ 1.4 µM)	–
isolate (source animal id): 190	0.5 (≈ 1.4 µM)	–
isolate (source animal id): 194	0.5 (≈ 1.4 µM)	–
isolate (source animal id): 195	0.5 (≈ 1.4 µM)	–
isolate (source animal id): 196	–	≤ 0.12
isolate (source animal id): 197	0.5 (≈ 1.4 µM)	–
isolate (source animal id): 198	–	≤ 0.12
isolate (source animal id): 200	–	≤ 0.12
isolate (source animal id): 206	–	≤ 0.12
isolate (source animal id): 208	–	≤ 0.12
isolate (source animal id): 210	–	≤ 0.12
isolate (source animal id): 211	1 (≈ 2.8 µM)	–
isolate (source animal id): 212	–	≤ 0.12
isolate (source animal id): 214	> 1	–
isolate (source animal id): 215	–	≤ 0.12
isolate (source animal id): 216	–	≤ 0.12
isolate (source animal id): 218	–	≤ 0.12
isolate (source animal id): 219	–	≤ 0.12
isolate (source animal id): 222	0.5 (≈ 1.4 µM)	–
isolate (source animal id): 223	0.5 (≈ 1.4 µM)	–
isolate (source animal id): 224	–	≤ 0.12
isolate (source animal id): 228	0.5 (≈ 1.4 µM)	≤ 0.12
isolate (source animal id): 230	0.5 (≈ 1.4 µM)	≤ 0.12
isolate (source animal id): 233	–	≤ 0.12
isolate (source animal id): 235	0.5 (≈ 1.4 µM)	–
isolate (source animal id): 236	> 1	–
isolate (source animal id): 238	–	≤ 0.12
isolate (source animal id): 239	> 1	≤ 0.12
isolate (source animal id): 241	0.5 (≈ 1.4 µM)	≤ 0.12
isolate (source animal id): 242	–	≤ 0.12
isolate (source animal id): 243	–	≤ 0.12
isolate (source animal id): 244	0.5 (≈ 1.4 µM)	–
isolate (source animal id): 245	–	≤ 0.12
isolate (source animal id): 246	0.5 (≈ 1.4 µM)	≤ 0.12
isolate (source animal id): 247	0.5 (≈ 1.4 µM)	≤ 0.12
isolate (source animal id): 248	–	≤ 0.12
isolate (source animal id): 250	0.25 (≈ 0.7 µM)	≤ 0.12
isolate (source animal id): 251	–	≤ 0.12
isolate (source animal id): 252	> 1	≤ 0.12
isolate (source animal id): 254	–	≤ 0.12
isolate (source animal id): 258	–	≤ 0.12
isolate (source animal id): 259	–	≤ 0.12
isolate (source animal id): 262	–	≤ 0.12
isolate (source animal id): 264	–	≤ 0.12
isolate (source animal id): 265	–	≤ 0.12
isolate (source animal id): 266	–	≤ 0.12
isolate (source animal id): 267	–	≤ 0.12
isolate (source animal id): 268	0.25 (≈ 0.7 µM)	–
isolate (source animal id): 269	–	≤ 0.12
isolate (source animal id): 271	–	≤ 0.12
isolate (source animal id): 272	–	≤ 0.12
isolate (source animal id): 274	–	≤ 0.12
isolate (source animal id): 276	–	≤ 0.12
isolate (source animal id): 278	–	≤ 0.12
isolate (source animal id): 280	–	≤ 0.12
isolate (source animal id): 281	–	≤ 0.12
isolate (source animal id): 282	1 (≈ 2.8 µM)	–
isolate (source animal id): 283	–	≤ 0.12
isolate (source animal id): 285	1 (≈ 2.8 µM)	–
isolate (source animal id): 288	–	≤ 0.12
isolate (source animal id): 289	0.5 (≈ 1.4 µM)	–
isolate (source animal id): 290	0.5 (≈ 1.4 µM)	–
isolate (source animal id): 291	–	≤ 0.12
isolate (source animal id): 292	–	≤ 0.12
isolate (source animal id): 296	0.5 (≈ 1.4 µM)	≤ 0.12
isolate (source animal id): 298	0.5 (≈ 1.4 µM)	–
isolate (source animal id): 301	0.5 (≈ 1.4 µM)	–
isolate (source animal id): 306	–	≤ 0.12
isolate (source animal id): 310	> 1	–
isolate (source animal id): 320	0.5 (≈ 1.4 µM)	–
isolate (source animal id): 331	1 (≈ 2.8 µM)	–
isolate (source animal id): 333	0.5 (≈ 1.4 µM)	–
isolate (source animal id): 336	–	≤ 0.12
isolate (source animal id): 337	–	≤ 0.12
isolate (source animal id): 341	> 1	≤ 0.12
